# From patent US9546153B2, “Bicyclic heterocycle substituted pyridyl compounds useful as kinase modulators” (BRISTOL-MYERS SQUIBB COMPANY, priority 2012, dated 2017)
# Read-outs that look alike come from different tables or passages of the source.
# How the values were obtained:
# IRAK4 = IRAK4 (Homo sapiens (Human), UniProt Q9NWZ3); assay: IRAK4 Inhibition Assay; format: biochemical; details: ATP 500 μM; IRAK4 0.6 nM; 60 min at room temperature
# Description: The assays were performed in U-bottom 384-well plates. […] The reaction was initiated by the combination of IRAK4 with substrates and test compounds. The reaction was incubated at room temperature for 60 min. and terminated by adding 45 μL of 35 mM EDTA to each sample. The reaction mixture was analyzed on the Caliper LABCHIP® 3000 (Caliper, Hopkinton, Mass.) by electrophoretic separation of the fluorescent substrate and phosphorylated product.
# [1] = system: TLR2 induced IL-6 in peripheral blood mononuclear cells (PBMCs); assay: PBMC TLR2 Induced IL-6 Assay; format: cell-based, human; details: human PBMCs, 10 μg/ml lipoteichoic acid for 5 hours, IL-6 by ELISA, value without asterisk, read-out: Cell IC50
# How it was run: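 IL-6 ELISA of supernatants after a 5 h challenge with the TLR2 agonist lipoteichoic acid (10 μg/ml). Before stimulation, human PBMCs (250000 cells/well; RPMI, 10% heat-inactivated FCS) received compound for 30 min at 37° C. Values given as IC50 or EC50.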
# IRAK4, sequence (Q9NWZ3 whole entry, species assumed): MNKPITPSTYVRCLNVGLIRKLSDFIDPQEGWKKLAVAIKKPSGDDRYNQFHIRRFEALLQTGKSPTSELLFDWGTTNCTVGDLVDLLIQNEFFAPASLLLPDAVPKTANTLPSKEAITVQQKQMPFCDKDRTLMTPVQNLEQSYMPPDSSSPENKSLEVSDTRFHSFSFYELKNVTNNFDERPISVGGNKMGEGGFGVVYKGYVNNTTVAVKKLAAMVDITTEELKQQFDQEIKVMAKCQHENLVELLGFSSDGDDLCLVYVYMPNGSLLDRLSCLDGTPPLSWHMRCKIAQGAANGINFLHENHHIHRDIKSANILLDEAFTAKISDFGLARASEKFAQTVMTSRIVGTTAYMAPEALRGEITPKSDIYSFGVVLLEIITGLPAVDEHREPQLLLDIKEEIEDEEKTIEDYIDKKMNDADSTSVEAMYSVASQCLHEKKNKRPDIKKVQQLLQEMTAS
smiles,measurement,setting,value
CC(O)([C@H](F)CNC(=O)c1cnc(Nc2ccc3ncsc3c2)cc1N[C@@H]1CCC[C@H]1O)C(F)(F)F (stereo partly drawn) [Example 333],IC50,IRAK4,4.1 nM
same,IC50,[1],152 nM
CC(O)([C@H](F)CNC(=O)c1cnc(Nc2ccc3ncsc3c2)cc1N[C@@H]1CCC[C@H]1O)C(F)(F)F (stereo partly drawn) [Example 334],IC50,IRAK4,4.5 nM
same,IC50,[1],321 nM
O=C(NC[C@@H](F)CO)c1cnc(Nc2ccc3ncsc3c2)cc1NC1CCCC1O (stereo partly drawn) [Example 337],IC50,IRAK4,5.8 nM
same,IC50,"[1]; Homo sapiens, PBMC, 5 h",799 nM
CC(C)(O)[C@H](F)CNC(=O)c1cnc(Nc2ccc3nccnc3c2)cc1NC1CCCC1O (stereo partly drawn) [Example 338],IC50,IRAK4,17.1 nM
same,IC50,"[1]; Homo sapiens, PBMC, 5 h",493 nM
CC(C)(O)[C@H](F)CNC(=O)c1cnc(Nc2ccc3ncsc3c2)cc1N[C@@H]1CCCC1F (stereo partly drawn) [Example 343],IC50,IRAK4,3 nM
same,IC50,[1],114 nM
CC(C)(O)[C@H](F)CNC(=O)c1cnc(Nc2ccc3ncsc3c2)cc1N[C@@H]1CCCC1F (stereo partly drawn) [Example 344],IC50,IRAK4,1.8 nM
same,IC50,[1],38 nM
Cc1nc2cc(F)c(Nc3cc(NC4CCCC4F)c(C(=O)NC[C@@H](F)C(C)(C)O)cn3)cc2s1 (stereo partly drawn) [Example 347],IC50,IRAK4,3.2 nM
same,IC50,"[1]; Homo sapiens, PBMC, 5 h",327 nM
CC(C)(O)[C@H](F)CNC(=O)c1cnc(Nc2ccc3nccnc3c2)cc1NC1CCCC1F (stereo partly drawn) [Example 348],IC50,IRAK4,6.7 nM
same,IC50,"[1]; Homo sapiens, PBMC, 5 h",562 nM
Cc1nc2ccc(Nc3cc(NC4CCCC4F)c(C(=O)NC[C@@H](F)C(C)(C)O)cn3)cc2s1 (stereo partly drawn) [Example 349],IC50,IRAK4,8.6 nM
same,IC50,[1],475 nM
Cc1nc2ccc(Nc3cc(NC4CCCC4F)c(C(=O)NC[C@@H](F)C(C)(C)O)cn3)cc2s1 (stereo partly drawn) [Example 350],IC50,IRAK4,2.7 nM
same,IC50,[1],148 nM
CC(C)(O)[C@H](F)CNC(=O)c1cnc(Nc2ccc3ncccc3c2)cc1NC1CCCC1F (stereo partly drawn) [Example 351],IC50,IRAK4,5.9 nM
same,IC50,"[1]; Homo sapiens, PBMC, 5 h",227 nM
O=C(NC1CCC(O)CC1)c1cnc(Nc2ccc3ncsc3c2)cc1NC1CCCC1F (stereo not drawn) [Example 352],IC50,IRAK4,3.8 nM
same,IC50,[1],245 nM
O=C(NC1CCC(O)CC1)c1cnc(Nc2ccc3ncsc3c2)cc1NC1CCCC1F (stereo not drawn) [Example 353],IC50,IRAK4,2.9 nM
same,IC50,[1],112 nM
CC(C)(O)[C@H](F)CNC(=O)c1cnc(Nc2ccc3ncoc3c2)cc1N[C@@H]1CCCC1F (stereo partly drawn) [Example 354],IC50,IRAK4,4.4 nM
same,IC50,"[1]; Homo sapiens, PBMC, 5 h",402 nM
CC(C)(O)[C@H](F)CNC(=O)c1cnc(Nc2ccc3ncoc3c2)cc1N[C@@H]1CCCC1F (stereo partly drawn) [Example 355],IC50,IRAK4,2.2 nM
same,IC50,[1],236 nM
CC(C)(O)[C@H](F)CNC(=O)c1cnc(Nc2ccc3nonc3c2)cc1N[C@@H]1CCCC1F (stereo partly drawn) [Example 356],IC50,IRAK4,3 nM
same,IC50,"[1]; Homo sapiens, PBMC, 5 h",281 nM
CC(C)(O)[C@H](F)CNC(=O)c1cnc(Nc2ccc3nonc3c2)cc1N[C@@H]1CCCC1F (stereo partly drawn) [Example 357],IC50,IRAK4,7.2 nM
same,IC50,[1],399 nM
CC(C)(O)[C@H](F)CNC(=O)c1cnc(Nc2ccc3ncsc3c2)cc1NC1CCCC1(F)F (stereo partly drawn) [Example 358],IC50,IRAK4,2.4 nM
same,IC50,"[1]; Homo sapiens, PBMC, 5 h",48 nM
CC(C)(O)[C@H](F)CNC(=O)c1cnc(Nc2ccc3nccnc3c2)cc1NC1CCCC1(F)F (stereo partly drawn) [Example 359],IC50,IRAK4,4.6 nM
same,IC50,"[1]; Homo sapiens, PBMC, 5 h",188 nM
CC(C)(O)[C@H](F)CNC(=O)c1cnc(Nc2ccc3ncccc3c2)cc1NC1CCCC1(F)F (stereo partly drawn) [Example 360],IC50,IRAK4,2.8 nM
same,IC50,"[1]; Homo sapiens, PBMC, 5 h",73 nM
"CC(C)(O)C(F)CNC(=O)c1cnc(Nc2ccc3ncsc3c2)cc1NC1CC(C(F)F)C1 (stereo not drawn) [Example 361, 4-(3-(difluoromethyl)cyclobutylamino)-6-(3a,27a-dihydrobenzo[d]thiazol-6-ylamino)-N-(2-fluoro-3-hydroxy-3-methylbutyl)nicotinamide]",IC50,IRAK4,6.9 nM
same,IC50,[1],176 nM
"CC(C)(O)[C@@H](F)CNC(=O)c1cnc(Nc2ccc3ncsc3c2)cc1NC1CC1 [Example 366, (S)-6-(benzo[d]thiazol-6-ylamino)-4-(cyclopropylamino)-N-(2-fluoro-3-hydroxy-3-methylbutyl)nicotinamide]",IC50,IRAK4,9.3 nM
same,IC50,"[1]; Homo sapiens, PBMC, 5 h",734 nM
"CC(C)Nc1cc(Nc2nc3ccnn3cc2F)ncc1C(=O)NC[C@@H](F)C(C)(C)O [Example 367, (R)—N-(2-fluoro-3-hydroxy-3-methylbutyl)-6-((6-fluoropyrazolo[1,5-a]pyrimidin-5-yl)amino)-4-(isopropylamino)nicotinamide]",IC50,IRAK4,4.8 nM
same,IC50,"[1]; Homo sapiens, PBMC, 5 h",569 nM
CC(C)(O)[C@H](F)CNC(=O)c1cnc(Nc2nc3ccnn3cc2F)cc1NC1CC1 [Example 368],IC50,IRAK4,5.3 nM
same,IC50,[1],445 nM
CC(C)(O)[C@H](F)CNC(=O)c1cnc(Nc2nc3ccnn3cc2F)cc1NC1CCOCC1 [Example 369],IC50,IRAK4,8.1 nM
same,IC50,"[1]; Homo sapiens, PBMC, 5 h",859 nM
CC(C)(O)[C@H](F)CNC(=O)c1cnc(Nc2ncc3ncccc3n2)cc1NC1CCOCC1 [Example 371],IC50,IRAK4,6 nM
same,IC50,"[1]; Homo sapiens, PBMC, 5 h",604 nM
CC(C)(F)CNc1cc(Nc2ccc3ncc(C#N)cc3n2)ncc1C(=O)NC[C@@H](F)C(C)(C)O [Example 373],IC50,IRAK4,5.1 nM
same,IC50,"[1]; Homo sapiens, PBMC, 5 h",431 nM
